Data on three molecules can be found in patent publication US20180116975A1, “COMPOSITIONS AND COMBINATIONS FOR THE TREATMENT OF ANGIOGENESIS DISEASES AND DISORDERS” (BIOMAS LTD., priority 2015, published 2018).

The test system of this data set is patients with AMD (PED, subretinal fluid). The data set can be described thus: Clinical study (compassionate treatment): oral AS101 in conjunction with intra vitreal anti VEGF injections. It counts as in vivo, human. An excerpt:
Patients were orally administered with AS101/Formula I in conjunction with intraocular injections of intra vitreal anti VEGF. […] A special compassionate approval has been given by the local committee of ethics in Meir medical center, Kfar Saba, and the Ministry of Health in Israel to treat these two patients with orally taken AS101.
Patient underwent an additional intra-vitreal Lucentis injection and from this point examination continued every month with treatment in PRN mode. Until Jul. 26, 2012 the patient underwent 9 intra-vitreal Lucentis injections. On January 2013 treatment was switched to Aflibercept (Eylea) and the patient received 3 montly injection and an additional injection on Jun. 18, 2013.
The patient received an intravitreal triancinolon acetonid injection followed by the 3rd lucentis one week later. […] The patient received 2 additional Lucentis injections and on Nov. 27, 2012 treatment was switched to Eylea when it became available in Israel. The patient received 8 monthly Eylea injections, the last one on Jun. 18, 2013.
On Jul. 7, 2013, the patient started to receive 12 drops of AS101 every day orally. On Aug.
Except for one occasion of a 5 month interval between 2 injections, the patient received an injection every month. […] Four days after the last Lucentis injection, on 13 Aug. 2013 the patient started to take 12 drops of AS101 orally.

Consider `Cl[TeH]1(Cl)(Cl)OCCO1` [AS101], for which the “OCT finding after discontinuation of AS101” value (Case 1, 3 weeks after AS101 was discontinued) is reported as “development of new subretinal fluid in both eyes”. Moreover, the “time without need for additional injections” value (Case 1, left eye, until discontinuation of AS101) is recorded as 8 months. Moreover, for the setting “Case 1, left eye, 12 drops AS101 daily orally, one month after Lucentis with triamcinilon acetonide injections”, the “subretinal fluid at the base of the PED (OCT)” value is given as “decrease of the amount of the subretinal fluid”. For the setting “Case 1, left eye, next 3 monthly OCT tests after cataract surgery, on AS101”, the “subretinal fluid at the slope of the PED (OCT)” value is “absorbed for the first time since it appeared”. The “time without need for intravitreal injections” value (Case 1, right eye, until discontinuation of AS101) was found to be 10 months. In addition, for the setting “Case 2, 12 drops AS101 orally”, the adverse events entry is reported as “No adverse events were reported”. For the same molecule, the last visual acuity by setting is: (Case 2, left eye, Nov. 11, 2014, on AS101 (20/200 at diagnosis)) 20/50; (Case 2, right eye, Nov. 11, 2014, on AS101) 20/30. The “Angiogenesis inhibitor injections during treatment according to the invention” value was “LE: 1 injection in 9” (Patient #1, LE (left eye), in 9 months, oral AS101); 4 injections (Patient #2, in 27 months, 12 drops AS101 orally, Lucentis PRN); 4 injections in 27 (Patient #2, in 27 months, 12 drops AS101 orally, Lucentis PRN, listed as AS 101). Further, under “Patient #2, during AS 101 treatment with Lucentis”, the “maximal time interval between injections” value was “injections: 14 months”. Further, for the setting “observation during the compassionate treatment”, the “progression of drusens/dry AMD to Wet AMD” value is “did not developed to Wet AMD”. Also, the “time intervals between Ranibizumab injections” value (patient suffering from AMD, otherwise injected every month, with AS-101) stood at 9 months.

As to Aflibercept [Eylea, reference compound], the “amount of the subretinal fluid over the peak of the PED and at the slope” value (Case 1, left eye, 8 monthly injections, before AS101) is listed as “did not change”.

B1: Ranibizumab (antibody, chains of the INN, looked up, V domains shown)
VH: EVQLVESGGGLVQPGGSLRLSCAASGYDFTHYGMNWVRQAPGKGLEWVGWINTYTGEPTYAADFKRRFTFSLDTSKSTAYLQMNSLRAEDTAVYYCAKYPYYYGTSHWYFDVWGQGTLVTVSS
VL: DIQLTQSPSSLSASVGDRVTITCSASQDISNYLNWYQQKPGKAPKVLIYFTSSLHSGVPSRFSGSGSGTDFTLTISSLQPEDFATYYCQQYSTVPWTFGQGTKVEIK
B1: the “subretinal fluid (OCT)” value (Case 1, right eye, 3 intra-vitreal injections in one month intervals, before AS101) is listed as “resolution of the subretinal fluid”.
